In PMC3193528, “Isothermal Titration Calorimetric Studies on the Interaction of the Major Bovine Seminal Plasma Protein, PDC-109 with Phospholipid Membranes” (PLoS ONE, 2011):

Key:
[1] = biological target: T1, PDC-109 (Bos taurus, UniProt P02784); test: isothermal titration calorimetry, one set of sites model; assay type: binding; conditions: read-out: K a×10^-5 (M^-1) (converted)
T1 construct: native, purified from bull seminal plasma; 109 residues, 23-residue N-terminal stretch plus two Fn-II domains; mixture of glycoforms BSP-A1 and BSP-A2; polydisperse aggregate in solution
T1 sequence (P02784 26-134): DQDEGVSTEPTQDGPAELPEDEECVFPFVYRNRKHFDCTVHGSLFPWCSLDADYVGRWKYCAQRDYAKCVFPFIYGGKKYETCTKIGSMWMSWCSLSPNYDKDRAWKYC
Excerpt: isothermal titration calorimetry, one set of sites model on PDC-109

[2] = biological target: T1, PDC-109; test: isothermal titration calorimetry, two sets of sites model; assay type: binding; conditions: 25 °C; stronger site of two-site fit (n = 0.9), assigned to micelles; acyl chain of lipid not given; read-out: K a (converted)

Row | Molecule | Kd [1] [µM] | Kd [2] [µM]
1 | CCCCCCCCCCCCCC(=O)OC[C@H](COP(=O)([O-])OCC[N+](C)(C)C)OC(=O)CCCCCCCCCCCCC [DMPC] | 2.44 | –
2 | CCCCCCCCCCCCCC(=O)OC[C@H](COP(=O)(O)OCC(O)CO)OC(=O)CCCCCCCCCCCCC (stereo partly shown) [DMPG] | 38.5 | –
3 | CCCCCCCCCCCCCCCC(=O)OC[C@H](COP(=O)([O-])OCC[N+](C)(C)C)OC(=O)CCCCCCCCCCCCCCC [DPPC] | 7.69 | –
4 | Lyso-PC | – | 1.43
